The record followed here is ChEMBL document CHEMBL1201862, “PubChem BioAssay data set” (2004).

The source made the active and inactive calls. Rule as the data show it: actives have a measured IC50 and inactives only a lower limit.

Assay [1] concerns the target T1, Sentrin-specific protease 6 (Homo sapiens, UniProt Q9GZR1).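 Also: Luminescence-based dose-response confirmatory assay of SENP6 inhibition, following up an ultra-high-throughput screen.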
T1 sequence (Q9GZR1 whole entry): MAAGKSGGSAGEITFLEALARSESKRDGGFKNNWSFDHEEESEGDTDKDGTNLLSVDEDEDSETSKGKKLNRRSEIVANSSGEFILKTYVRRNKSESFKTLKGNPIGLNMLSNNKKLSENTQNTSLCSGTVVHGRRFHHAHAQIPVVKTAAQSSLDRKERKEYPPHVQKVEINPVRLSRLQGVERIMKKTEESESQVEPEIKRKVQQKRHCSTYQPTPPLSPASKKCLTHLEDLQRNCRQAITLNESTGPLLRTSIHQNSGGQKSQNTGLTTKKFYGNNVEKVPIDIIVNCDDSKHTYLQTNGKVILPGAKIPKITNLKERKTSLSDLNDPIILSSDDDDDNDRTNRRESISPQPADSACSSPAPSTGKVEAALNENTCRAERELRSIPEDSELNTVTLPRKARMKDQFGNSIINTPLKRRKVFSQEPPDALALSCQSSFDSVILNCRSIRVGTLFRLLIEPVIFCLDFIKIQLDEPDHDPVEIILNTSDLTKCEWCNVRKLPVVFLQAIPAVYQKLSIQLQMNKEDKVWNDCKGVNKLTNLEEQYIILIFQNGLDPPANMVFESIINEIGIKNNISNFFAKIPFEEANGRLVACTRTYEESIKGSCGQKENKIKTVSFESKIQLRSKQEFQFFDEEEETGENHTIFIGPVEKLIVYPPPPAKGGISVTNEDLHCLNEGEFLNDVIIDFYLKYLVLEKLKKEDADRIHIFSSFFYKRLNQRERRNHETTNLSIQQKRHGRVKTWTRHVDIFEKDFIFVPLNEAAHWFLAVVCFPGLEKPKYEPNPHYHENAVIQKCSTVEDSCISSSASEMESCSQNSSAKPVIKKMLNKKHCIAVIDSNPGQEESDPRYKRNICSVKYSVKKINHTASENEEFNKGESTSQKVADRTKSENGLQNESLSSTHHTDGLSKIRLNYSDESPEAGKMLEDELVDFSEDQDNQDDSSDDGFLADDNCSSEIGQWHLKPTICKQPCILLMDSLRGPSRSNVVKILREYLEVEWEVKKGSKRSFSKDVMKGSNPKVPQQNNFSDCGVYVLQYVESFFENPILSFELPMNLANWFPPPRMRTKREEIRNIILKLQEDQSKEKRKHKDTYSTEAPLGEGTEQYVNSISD
Type of assay: functional.

Assay [2] deals with T2, Apoptotic protease-activating factor 1 (Homo sapiens, UniProt O14727).
T2 sequence (O14727 whole entry): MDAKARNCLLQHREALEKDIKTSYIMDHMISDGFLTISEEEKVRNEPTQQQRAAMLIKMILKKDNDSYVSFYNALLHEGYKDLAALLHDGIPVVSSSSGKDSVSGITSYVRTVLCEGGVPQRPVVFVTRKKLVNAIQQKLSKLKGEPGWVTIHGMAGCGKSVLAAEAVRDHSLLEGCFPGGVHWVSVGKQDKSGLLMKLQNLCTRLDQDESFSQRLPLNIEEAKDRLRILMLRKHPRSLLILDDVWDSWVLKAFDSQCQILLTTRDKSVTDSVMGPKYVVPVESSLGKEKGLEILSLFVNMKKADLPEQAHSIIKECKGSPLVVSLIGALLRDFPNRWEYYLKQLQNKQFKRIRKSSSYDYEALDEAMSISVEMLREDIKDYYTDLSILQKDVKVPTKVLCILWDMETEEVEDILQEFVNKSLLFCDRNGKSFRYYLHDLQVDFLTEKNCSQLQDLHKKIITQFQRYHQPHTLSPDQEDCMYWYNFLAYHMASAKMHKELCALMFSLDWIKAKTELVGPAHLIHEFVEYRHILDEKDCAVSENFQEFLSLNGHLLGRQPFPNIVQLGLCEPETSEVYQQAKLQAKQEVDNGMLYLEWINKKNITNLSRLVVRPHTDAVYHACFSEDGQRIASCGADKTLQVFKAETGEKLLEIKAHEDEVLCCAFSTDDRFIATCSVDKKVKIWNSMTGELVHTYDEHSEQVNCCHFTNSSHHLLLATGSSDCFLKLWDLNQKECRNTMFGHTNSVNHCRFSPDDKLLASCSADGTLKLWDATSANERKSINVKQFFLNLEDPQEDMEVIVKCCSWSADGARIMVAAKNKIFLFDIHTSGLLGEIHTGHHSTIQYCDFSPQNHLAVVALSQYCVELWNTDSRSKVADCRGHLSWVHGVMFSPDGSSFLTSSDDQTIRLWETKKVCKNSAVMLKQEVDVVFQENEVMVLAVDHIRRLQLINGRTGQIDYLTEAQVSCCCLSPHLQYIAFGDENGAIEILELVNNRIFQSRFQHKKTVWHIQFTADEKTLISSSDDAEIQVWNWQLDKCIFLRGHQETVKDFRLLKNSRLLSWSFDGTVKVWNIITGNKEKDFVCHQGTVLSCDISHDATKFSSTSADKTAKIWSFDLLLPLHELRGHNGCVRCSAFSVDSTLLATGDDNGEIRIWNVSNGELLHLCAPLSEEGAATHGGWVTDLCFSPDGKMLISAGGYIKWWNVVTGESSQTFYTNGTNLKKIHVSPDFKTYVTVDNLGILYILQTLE
In kind it is functional.

On to `CCN(c1ccccc1)c1cc2ccccc2c(=O)[nH]1`, for which the concentration for half-maximal inhibition (IC50) is 2.21 µM (active) in assay [1] and 18.7 µM (active) in assay [2].

`O=C(NC1(O)C(=O)c2ccccc2C1=O)c1c(Cl)cccc1Cl`: the figures for the IC50 in assay [1] and in assay [2] were 3.53 µM (active) and 2.7 µM (active), respectively.

With `O=C(NC1(O)C(=O)c2ccccc2C1=O)c1ccc(C(F)(F)F)cc1`, the IC50 in assay [1] is 2.66 µM (active); in assay [2], 2.97 µM (active).

`O=C(COC(=O)c1ccc([N+](=O)[O-])s1)Nc1ncc(C(F)(F)F)cc1Cl`: the half-inhibitory concentration (IC50) in assay [1] is 5.68 µM (active).

As a reminder, the IC50 is the concentration needed to halve the response being measured.
